pIC50: −log10 of the molar value.
Tests used:
P2X2/3 = target: T1, P2X2/3 (UniProt P56373+Q9UBL9); test: FLIPR intracellular calcium assay, P2X2/3; type: cell-based, human or rat; details: agonist at EC75, species of receptor not given
T1 construct: hP2X2/3 (Cat #6179)
T1 sequence (P56373 1-397): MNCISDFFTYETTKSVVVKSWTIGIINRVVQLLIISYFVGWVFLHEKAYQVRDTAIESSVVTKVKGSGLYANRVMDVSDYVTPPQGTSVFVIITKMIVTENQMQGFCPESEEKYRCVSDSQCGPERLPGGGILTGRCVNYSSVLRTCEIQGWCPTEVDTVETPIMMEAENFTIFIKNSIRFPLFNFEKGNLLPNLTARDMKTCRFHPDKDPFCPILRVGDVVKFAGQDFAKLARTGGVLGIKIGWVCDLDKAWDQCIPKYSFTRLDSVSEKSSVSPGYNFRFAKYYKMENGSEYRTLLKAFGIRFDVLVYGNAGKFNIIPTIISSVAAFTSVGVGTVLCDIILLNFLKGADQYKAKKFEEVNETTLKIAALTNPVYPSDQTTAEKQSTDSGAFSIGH
T1 sequence (Q9UBL9 1-471): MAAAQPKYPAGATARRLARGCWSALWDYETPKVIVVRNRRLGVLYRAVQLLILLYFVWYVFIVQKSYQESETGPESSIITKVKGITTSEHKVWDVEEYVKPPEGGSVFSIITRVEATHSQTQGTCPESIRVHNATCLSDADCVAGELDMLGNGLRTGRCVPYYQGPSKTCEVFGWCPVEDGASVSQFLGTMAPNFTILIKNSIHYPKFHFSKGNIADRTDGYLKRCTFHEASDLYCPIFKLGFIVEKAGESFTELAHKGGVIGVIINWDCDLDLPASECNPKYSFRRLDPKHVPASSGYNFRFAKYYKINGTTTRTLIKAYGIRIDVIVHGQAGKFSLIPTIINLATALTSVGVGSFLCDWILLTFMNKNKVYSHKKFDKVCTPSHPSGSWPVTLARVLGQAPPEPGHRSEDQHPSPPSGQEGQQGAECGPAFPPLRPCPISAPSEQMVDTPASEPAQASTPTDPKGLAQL
Description: (§1) The FLIPR® assay utilizes cells which express human or rat P2X3 or P2X2/3 receptors. Recombinant cells expressing hP2X3 (Cat #6188) and hP2X2/3 (Cat #6179) were procured from Chantest Corp. Rat P2X2 (NCBI Accession No: U14414) was amplified by PCR from PC12 cDNA (a rat adrenal medulla cell line). The PCR product obtained containing the protein coding sequence of rat P2X2 was cloned into EcoRV-digested and dephosphorylated vector pIRES-puro3 within the multiple cloning site (MCS). See, FIG. 1A.
(§2) Cryo-vial containing 6×10^6 cells (human P2X3-HEK/human P2X2/3-TRex293/rat P2X2/3-TRex293/rat P2X3 TRex-CHO) was thawed in a 37° C. water bath. Cells were suspended in 20 mL of respective cell plating media (See annexure for composition) in a 50 mL centrifuge tube. The cell viability was checked with the help of Trypan Blue dye. Upon washing, cells were plated in a black 384-well clear bottomed, sterile poly-D-lysine coated plate such that, each well contained 10,000 cells (15,000/well for hP2X3) in 30 μL cell plating media. The plate was incubated in a 5% CO2 incubator at 37° C. for 24 h.
(§3) The next day, prior to the assay, the cell plating media was removed from each well by decanting and gentle tapping. Thirty μL of FLIPR Calcium 4 dye solution was added to each well. The plate was incubated at 37° C. for 45 min (60 min for hP2X3). The plate was next equilibrated at room temperature for 15 minutes before placing it in a 384 well FLIPR for the assay.
(§4) Compounds were dissolved in DMSO and serially diluted following 11 point half log (3.16 fold) dilution with a starting concentration of 2 mM. Dilutions were mixed with assay buffer just before performing the assay.
(§5) Compounds were added to the respective wells of the assay-ready cell plate with the help of the FLIPR and fluorescence readings were captured for 5 min to observe any possible agonistic property of the compounds. The plate was then incubated at room temperature for 15 min. The cells were stimulated with respective agonist EC75 concentration and the fluorescence readings were captured for another 5 min by FLIPR. The difference in fluorescence readings in presence of the compounds were compared with that of the control wells (wells having no compound) to calculate the inhibitory potency of the compounds. The IC50 values of the compounds were determined using the Graph pad Prism software.

P2X3 = target: T2, P2X3 (UniProt P56373); test: FLIPR intracellular calcium assay, P2X3; type: cell-based, human or rat; details: agonist at EC75, species of receptor not given
T2 sequence (P56373 1-397): T1 sequence (P56373 1-397)
Description: as §1, §2, §3, §4, §5

[1] = system: formalin-induced hind limb flinches; test: Formalin induced pain (Automated Nociception Analyzer test); type: in vivo; details: rat, oral gavage 100 mg/kg, 30 min before footpad formalin injection
Procedure: Male Sprague Dawley rats of young adult age group and body weight range of 200-250 g were included in the study. Animals were housed under a 12 h light/dark cycle with food and water ad libitum. Animals were acclimatized in the observation chambers of Automated Nociception Analyzer (ANA) for 45-60 min, twice daily for two days prior to the study day. On the day of the study, metal bands were glued to the plantar surface of the right hind paw of each animal enrolled in the study set and kept in plastic observation chambers for 10-15 min. Formalin injection was done in the animals after 0.5 or 1 h of oral treatment with test compound or vehicle (20% polyethylene glycol, 1% TweenTM 80 reagent, 79% water). Formalin injection of the animals was done with 50 μL of 2.5% formalin (freshly prepared from formaldehyde solution, Sigma, USA, Cat # F8775) injected subcutaneously in to the dorsum of right hind paw. Animals were placed back to their respective recording chambers of ANA immediately after injection. […] count data for each animal was recorded from 1 to 60 min post formalin injection, using ANA motion analysis software. The study was analyzed in 2 phases, the early phase extended from 0-10 min and second phase extended from 11-60 min post formalin injection. The data was collected in 5 min time bins and the counts of each bin were added up for total count of the phase. […]

[2] = system: acetic acid induced writhing (visceral pain); test: Acetic acid induced writhing test; type: in vivo; details: mouse, oral gavage 20, 40 and 60 mg/kg, 30 min before i.p. acetic acid, counted 15 min
Procedure: Swiss albino mice of 30-40 g were included in the study. The mice were given an intraperitoneal injection of 0.7% v/v acetic acid solution at an injection volume of 10 mL/kg, 30 min after oral administration of vehicle or test article control. Test articles were administered, typically, at doses between 20 and 60 mg/kg. The mice were placed individually into glass chambers. The number of writhes produced in these animals was counted for 15 min following acetic acid administration. For scoring purposes writhing was indicated by stretching of the abdomen with simultaneous stretching of at least one hind limb. See, e.g., FIG. 4. Statistical analysis was done with One way ANOVA followed by Dunnett's multiple comparison tests. Comparison was done between treatment groups and vehicle with respect to total number of writhes and p<0.05 was considered statistically significant. Each group comprised of 6 animals.

Row | pIC50 (P2X2/3) | pIC50 (P2X3) | SMILES | second phase flinching response to formalin [1] | pain responses (writhes) after acetic acid [2]
1 | 6.00 to 7.00 | 7.00 to 9.00 | Cc1ccc(-c2cnc3c(Nc4ccccc4)cc(C(=O)NCc4ccc(C)[n+]([O-])c4)cn23)s1 [Example 89] |  | 
2 | 7.00 to 9.00 | 7.00 to 9.00 | Cc1ccc(-c2cnc3c(N4CCC(C)CC4)cc(C(=O)NCc4ccc(C)[n+]([O-])c4)cn23)s1 [Example 117] |  | 
3 | 5.00 to 6.00 | 5.00 to 6.00 | CCCCc1cnc2c(N3CCC(C)CC3)cc(C(=O)N[C@@H](C)c3nnc[nH]3)cn12 [Example 9, (S)—N-(1-(4H-1,2,4-Triazol-3-yl)ethyl)-3-butyl-8-(4-methylpiperidin-1-yl)imidazo[1,2-a]pyridine-6-carboxamide] |  | 
4 | 7.00 to 9.00 | 7.00 to 9.00 | Cc1ccc(-c2cnc3c(-n4nnnc4C4CCC4)cc(C(=O)N[C@@H](C)c4nnc[nH]4)cn23)s1 [Example 165] |  | 
5 | 6.00 to 7.00 | 5.00 to 6.00 | Cc1ccc(-c2cnc3c(N4CCC(C)CC4)cc(C(=O)NCc4ccc[n+]([O-])c4)cn23)s1 [Example 147] |  | 
6 | 6.00 to 7.00 | 6.00 to 7.00 | Cc1ccc(-c2cnc3c(NC4CCCCC4)cc(C(=O)NCc4ccc(C(F)(F)F)[n+]([O-])c4)cn23)s1 [Example 124] |  | 
7 | 6.00 to 7.00 | 7.00 to 9.00 | Cc1ccc(-c2cnc3c(-n4nnnc4C4CC4)cc(C(=O)N[C@@H](C)c4nnc[nH]4)cn23)s1 [Example 167] |  | 
8 | 6.00 to 7.00 | 6.00 to 7.00 | Cc1cnc(-c2cnc3c(N4CCC(C)CC4)cc(C(=O)NCc4ccc(C)[n+]([O-])c4)cn23)s1 [Example 125] |  | 
9 | 7.00 to 9.00 | < 5.00 | COc1ccc(CNC(=O)c2cc(-n3nnnc3C3CCC3)c3ncc(-c4ccc(C)s4)n3c2)cn1 [Example 163] |  | 
10 | 7.00 to 9.00 | < 5.00 | Cc1ccc(-c2cnc3c(N4CCC(F)(F)CC4)cc(C(=O)NCc4ccc(C)[n+]([O-])c4)cn23)s1 [Example 123] |  | 
11 | 6.00 to 7.00 | 5.00 to 6.00 | Cc1ccc(-c2cnc3c(N4CCC(F)(F)CC4)cc(C(=O)N[C@@H](C)C4=NN=CC4)cn23)s1 [Example 143] |  | 
12 | 6.00 to 7.00 | 7.00 to 9.00 | Cc1ccc(CNC(=O)c2cc(N3CCC(C)CC3)c3ncc(-c4ccc(Cl)s4)n3c2)c[n+]1[O-] [Example 119] |  | 
13 | 7.00 to 9.00 | < 5.00 | Cc1ccc(-c2cnc3c(N4CCC(F)CC4)cc(C(=O)NCc4ccc(C)[n+]([O-])c4)cn23)s1 [Example 127] |  | 
14 |  | 7.00 to 9.00 | CCCSc1cnc2c(N3CCC(C)CC3)cc(C(=O)NCc3ccc(C)[n+]([O-])c3)cn12 [Example 114] |  | 
15 | 7.00 to 9.00 | 7.00 to 9.00 | Cc1ccc(-c2cnc3c(N4CCC(C)(C)CC4)cc(C(=O)NCc4ccc(C)[n+]([O-])c4)cn23)s1 [Example 122] |  | 
16 |  |  | CCc1cnnn1-c1cc(C(=O)NCc2ccc(C)nc2)cn2c(-c3ccc(C)s3)cnc12 [Example 22] | attenuated | clear dose-related reduction
17 | 7.00 to 9.00 | 7.00 to 9.00 | Cc1ccc(-c2cnc3c(NC4CCCCC4)cc(C(=O)NCc4ccc(C)[n+]([O-])c4)cn23)s1 [Example 120] |  | 
18 | 6.00 to 7.00 | 7.00 to 9.00 | Cc1ccc(-c2cnc3c(N4CCC(C(F)(F)F)CC4)cc(C(=O)NCc4ccc(C)[n+]([O-])c4)cn23)s1 [Example 131] |  | 
19 | 7.00 to 9.00 | 7.00 to 9.00 | Cc1ccc(-c2cnc3c(N4CCC(CF)CC4)cc(C(=O)NCc4ccc(C)[n+]([O-])c4)cn23)s1 [Example 132] |  | 
20 | 7.00 to 9.00 | < 5.00 | Cc1ccc(-c2cnc3c(N(C)C4CCCCC4)cc(C(=O)NCc4ccc(C)[n+]([O-])c4)cn23)s1 [Example 126] |  | 

From patent US9908879B2, “P2X3 and/or P2X2/3 compounds and methods” (Asana Biosciences, LLC, priority 2013, dated 2018)
